Tested on: LNCaP tumor-bearing mice
Assay: Ex vivo biodistribution in LNCaP tumor-bearing mice
Design: species or system mouse
Protocol: Imaging, biodistribution and radioligand therapy experiments were performed following previously published procedures using male NOD-scid IL2Rg^null (NSG) or NOD.Cg-Rag1^tm1MomIl2rg^tm1Wjl/SzJ (NRG) mice [10]-[12],[14]-[15]. The experiments were conducted according to the guidelines established by the Canadian Council on Animal Care and approved by Animal Ethics Committee of the University of British Columbia. The mice were briefly sedated by inhalation of 2% isoflurane in oxygen, and implanted subcutaneously with 1×10^7 LNCaP cells behind the left shoulder. The mice were imaged or used in biodistribution studies when the tumor grew to 5-8 mm in diameter over a period of 4-5 weeks.
For biodistribution studies, the mice were injected with the radioligand (2-4 MBq) as described above. For blocking, the mice were co-injected with nonradioactive DCFPyL (0.5 mg). At predetermined time points, the mice were sedated by isoflurane inhalation and euthanized by CO2 inhalation. Blood was withdrawn by cardiac puncture, and organs/tissues of interest were collected, weighed and counted using an automatic gamma counter (Tables S4-S7).

Structure (SMILES): COc1ccc(CCCC(=O)NCC(=O)N[C@@H](CCCCNC(=O)CN2CCN(CC(=O)[O-])CCN(CC(=O)[O-])CCN(CC(=O)[O-])CC2)C(=O)NC[C@H]2CC[C@H](C(=O)N[C@@H](Cc3c4ccccc4cc4ccccc34)C(=O)NCCCC[C@H](NC(=O)N[C@@H](CSCC(=O)O)C(=O)O)C(=O)O)CC2)cc1.[177Lu+3] [[^177Lu]Lu-HTK04048]
- Adrenal glands uptake (1 h post-injection): 4.43 ± 1.11 %ID/g
- Blood uptake (1 h post-injection): 19.8 ± 3.38 %ID/g
- Blood:Salivary gland uptake ratio (1 h post-injection): 6.78 ± 0.76
- Bone uptake (1 h post-injection): 1.10 ± 0.16 %ID/g
- Brain uptake (1 h post-injection): 0.29 ± 0.03 %ID/g
- Fat uptake (1 h post-injection): 1.56 ± 0.45 %ID/g
- Heart uptake (1 h post-injection): 4.74 ± 0.60 %ID/g
- Intestines uptake (1 h post-injection): 1.38 ± 0.22 %ID/g
- Kidneys uptake (1 h post-injection): 17.4 ± 4.32 %ID/g
- Lacrimal glands uptake (1 h post-injection): 0.42 ± 0.12 %ID/g
- Liver uptake (1 h post-injection): 3.94 ± 0.69 %ID/g
- Lungs uptake (1 h post-injection): 9.52 ± 1.44 %ID/g
- Muscle uptake (1 h post-injection): 1.54 ± 0.20 %ID/g
- Pancreas uptake (1 h post-injection): 1.77 ± 0.17 %ID/g
- Salivary glands uptake (1 h post-injection): 2.92 ± 0.36 %ID/g
- Spleen uptake (1 h post-injection): 2.57 ± 0.48 %ID/g
- Stomach uptake (1 h post-injection): 0.75 ± 0.11 %ID/g
- Testes uptake (1 h post-injection): 2.60 ± 0.62 %ID/g
- Thyroid uptake (1 h post-injection): 3.97 ± 0.47 %ID/g
- Tumor uptake (1 h post-injection): 16.5 ± 5.48 %ID/g
- Tumor:Blood uptake ratio (1 h post-injection): 0.84 ± 0.22
- Tumor:Kidney uptake ratio (1 h post-injection): 0.99 ± 0.34
- Tumor:Muscle uptake ratio (1 h post-injection): 10.7 ± 2.87
- Tumor:Salivary gland uptake ratio (1 h post-injection): 5.64 ± 1.51
- Adrenal glands uptake (4 h post-injection): 2.17 ± 0.21 %ID/g
- Blood uptake (4 h post-injection): 11.7 ± 1.39 %ID/g
- Blood:Salivary gland uptake ratio (4 h post-injection): 6.12 ± 0.58
- Bone uptake (4 h post-injection): 0.69 ± 0.11 %ID/g
- Brain uptake (4 h post-injection): 0.18 ± 0.01 %ID/g
- Fat uptake (4 h post-injection): 0.94 ± 0.13 %ID/g
- Heart uptake (4 h post-injection): 2.87 ± 0.30 %ID/g
- Intestines uptake (4 h post-injection): 1.00 ± 0.08 %ID/g
- Kidneys uptake (4 h post-injection): 12.5 ± 1.35 %ID/g
- Lacrimal glands uptake (4 h post-injection): 0.54 ± 0.52 %ID/g
- Liver uptake (4 h post-injection): 2.28 ± 0.46 %ID/g
- Lungs uptake (4 h post-injection): 5.92 ± 0.79 %ID/g
- Muscle uptake (4 h post-injection): 0.96 ± 0.09 %ID/g
- Pancreas uptake (4 h post-injection): 1.15 ± 0.14 %ID/g
- Salivary glands uptake (4 h post-injection): 1.91 ± 0.20 %ID/g
- Spleen uptake (4 h post-injection): 1.96 ± 0.39 %ID/g
- Stomach uptake (4 h post-injection): 0.71 ± 0.13 %ID/g
- Testes uptake (4 h post-injection): 2.72 ± 0.34 %ID/g
- Thyroid uptake (4 h post-injection): 2.68 ± 0.23 %ID/g
- Tumor uptake (4 h post-injection): 39.4 ± 22.4 %ID/g
- Tumor:Blood uptake ratio (4 h post-injection): 3.49 ± 2.31
- Tumor:Kidney uptake ratio (4 h post-injection): 3.27 ± 2.16
- Tumor:Muscle uptake ratio (4 h post-injection): 42.2 ± 27.3
- Tumor:Salivary gland uptake ratio (4 h post-injection): 20.9 ± 11.9
- Adrenal glands uptake (24 h post-injection): 0.67 ± 0.26 %ID/g
- Blood uptake (24 h post-injection): 0.62 ± 0.16 %ID/g
- Blood:Salivary gland uptake ratio (24 h post-injection): 1.61 ± 0.40
- Bone uptake (24 h post-injection): 0.11 ± 0.02 %ID/g
- Brain uptake (24 h post-injection): 0.03 ± 0.00 %ID/g
- Fat uptake (24 h post-injection): 0.15 ± 0.05 %ID/g
- Heart uptake (24 h post-injection): 0.34 ± 0.05 %ID/g
- Intestines uptake (24 h post-injection): 0.46 ± 0.31 %ID/g
- Kidneys uptake (24 h post-injection): 5.68 ± 1.28 %ID/g
- Lacrimal glands uptake (24 h post-injection): 0.06 ± 0.01 %ID/g
- Liver uptake (24 h post-injection): 0.77 ± 0.52 %ID/g
- Lungs uptake (24 h post-injection): 1.05 ± 0.36 %ID/g
- Muscle uptake (24 h post-injection): 0.11 ± 0.02 %ID/g
- Pancreas uptake (24 h post-injection): 0.15 ± 0.03 %ID/g
- Salivary glands uptake (24 h post-injection): 0.39 ± 0.08 %ID/g
- Spleen uptake (24 h post-injection): 0.64 ± 0.10 %ID/g
- Stomach uptake (24 h post-injection): 0.83 ± 0.66 %ID/g
- Testes uptake (24 h post-injection): 0.67 ± 0.24 %ID/g
- Thyroid uptake (24 h post-injection): 0.53 ± 0.07 %ID/g
- Tumor uptake (24 h post-injection): 65.3 ± 19.6 %ID/g
- Tumor:Blood uptake ratio (24 h post-injection): 113 ± 44.5
- Tumor:Kidney uptake ratio (24 h post-injection): 11.5 ± 2.22
- Tumor:Muscle uptake ratio (24 h post-injection): 594 ± 177
- Tumor:Salivary gland uptake ratio (24 h post-injection): 175 ± 58.1
- Adrenal glands uptake (72 h post-injection): 0.33 ± 0.06 %ID/g
- Blood uptake (72 h post-injection): 0.08 ± 0.06 %ID/g
- Blood:Salivary gland uptake ratio (72 h post-injection): 0.43 ± 0.28
- Bone uptake (72 h post-injection): 0.06 ± 0.02 %ID/g
- Brain uptake (72 h post-injection): 0.01 ± 0.00 %ID/g
- Fat uptake (72 h post-injection): 0.07 ± 0.03 %ID/g
- Heart uptake (72 h post-injection): 0.14 ± 0.03 %ID/g
- Intestines uptake (72 h post-injection): 0.13 ± 0.08 %ID/g
- Kidneys uptake (72 h post-injection): 2.19 ± 0.21 %ID/g
- Lacrimal glands uptake (72 h post-injection): 0.01 ± 0.01 %ID/g
- Liver uptake (72 h post-injection): 0.25 ± 0.02 %ID/g
- Lungs uptake (72 h post-injection): 0.26 ± 0.08 %ID/g
- Muscle uptake (72 h post-injection): 0.03 ± 0.01 %ID/g
- Pancreas uptake (72 h post-injection): 0.06 ± 0.01 %ID/g
- Salivary glands uptake (72 h post-injection): 0.18 ± 0.03 %ID/g
- Spleen uptake (72 h post-injection): 0.54 ± 0.14 %ID/g
- Stomach uptake (72 h post-injection): 0.20 ± 0.17 %ID/g
- Testes uptake (72 h post-injection): 0.35 ± 0.05 %ID/g
- Thyroid uptake (72 h post-injection): 0.28 ± 0.05 %ID/g
- Tumor uptake (72 h post-injection): 64.1 ± 15.0 %ID/g
- Tumor:Blood uptake ratio (72 h post-injection): 1493 ± 1213
- Tumor:Kidney uptake ratio (72 h post-injection): 29.2 ± 6.22
- Tumor:Muscle uptake ratio (72 h post-injection): 2043 ± 734
- Tumor:Salivary gland uptake ratio (72 h post-injection): 362 ± 111
- Adrenal glands uptake (120 h post-injection): 0.30 ± 0.14 %ID/g
- Blood uptake (120 h post-injection): 0.04 ± 0.03 %ID/g
- Blood:Salivary gland uptake ratio (120 h post-injection): 0.22 ± 0.13
- Bone uptake (120 h post-injection): 0.05 ± 0.02 %ID/g
- Brain uptake (120 h post-injection): 0.01 ± 0.00 %ID/g
- Fat uptake (120 h post-injection): 0.05 ± 0.03 %ID/g
- Heart uptake (120 h post-injection): 0.08 ± 0.02 %ID/g
- Intestines uptake (120 h post-injection): 0.10 ± 0.10 %ID/g
- Kidneys uptake (120 h post-injection): 1.43 ± 0.48 %ID/g
- Lacrimal glands uptake (120 h post-injection): 0.01 ± 0.01 %ID/g
- Liver uptake (120 h post-injection): 0.18 ± 0.07 %ID/g
- Lungs uptake (120 h post-injection): 0.12 ± 0.05 %ID/g
- Muscle uptake (120 h post-injection): 0.02 ± 0.01 %ID/g
- Pancreas uptake (120 h post-injection): 0.05 ± 0.03 %ID/g
- Salivary glands uptake (120 h post-injection): 0.13 ± 0.03 %ID/g
- Spleen uptake (120 h post-injection): 0.55 ± 0.27 %ID/g
- Stomach uptake (120 h post-injection): 0.04 ± 0.02 %ID/g
- Testes uptake (120 h post-injection): 0.22 ± 0.09 %ID/g
- Thyroid uptake (120 h post-injection): 0.17 ± 0.02 %ID/g
- Tumor uptake (120 h post-injection): 65.7 ± 19.1 %ID/g
- Tumor:Blood uptake ratio (120 h post-injection): 4346 ± 4168
- Tumor:Kidney uptake ratio (120 h post-injection): 52.1 ± 16.3
- Tumor:Muscle uptake ratio (120 h post-injection): 3358 ± 2122
- Tumor:Salivary gland uptake ratio (120 h post-injection): 604 ± 226
- Peaked tumor uptake relative to ^68Ga-labeled non-albumin-binder analog (mouse, in vivo): ~ 3 fold
- Peaked average tumor uptake (peak over 1-120 h post-injection): ~ 60 %ID/g
- Time of peak tumor uptake (post-injection, listed as 177Lu-labeled HTK04048): 4 to 24 h
